pIC50: −log10 of the molar value. Like-named read-outs stand apart in the source and are kept apart here.
What was measured:
Influenza A and B [1] = format: in vivo, mouse; conditions: given as +(n), route and dose not specified
Influenza A and B [2] = experiment: microbe, parasite or virus in culture; format: cell-based, chick embryo cells; conditions: read-out: Anti-influenza Activity CE cells IC50
[3] = primary chick embryo (CE) cells, influenza strain not given

SMILES | Mouse log10 reduction in virus titre (Average of 5 Mice) (Influenza A and B [1]) [log10] | pIC50 (Influenza A and B [2]; [3]) | pIC50 (Influenza A and B [2]; in Gallus gallus)
Nc1ncc2ncn([C@@H]3O[C@H](CO)[C@@H](O)[C@H]3F)c2n1 [Example 9, 2-Amino-9-(2-deoxy-2-fluoro-β-D-ribofuranosyl)-9H-purine] | 1.6 | – | –
Nc1ncnc2c1ncn2[C@@H]1O[C@H](CO)[C@@H](O)[C@H]1F [Example 8, 9-(2-Deoxy-2-fluoro-β-D-ribofuranosyl)adenine] | 2.3 | 5.40 | –
Nc1nc(N)c2ncn([C@@H]3O[C@H](CO)[C@@H](O)[C@H]3F)c2n1 [Example 6, 2,6-Diamino-9-(2-deoxy-2-fluoro-β-D-ribofuranosyl)-9H-purine] | 2.1 | – | 6.22
COc1nc(N)nc2c1ncn2[C@@H]1O[C@H](CO)[C@@H](O)[C@H]1F [Example 12, 2-Amino-9-(2-deoxy-2-fluoro-β-D-ribofuranosyl)-6-methoxy-9H-purine] | 1.9 | 6.40 | –
Nc1nc2c(ncn2[C@@H]2O[C@H](CO)[C@@H](O)[C@H]2F)c(=O)[nH]1 [Example 7, 9-(2-Deoxy-2-fluoro-β-D-ribofuranosyl)guanine] | 2.4 | 5.70 to 6.10 | –
